What all share (type): in vivo
In series [1] the test system is green peach aphid (Myzus persicae). Nature of the series: Green Peach Aphid systemic test, artificial diet in 96-well microtiter plates. Particulars: 72 h, adult aphids on treated diet, 3 days, read-out: mortality in comparison with untreated controls. From the text:
For evaluating control of green peach aphid (Myzus persicae) through systemic means, the test unit consisted of 96-well-microtiter plates containing liquid artificial diet under an artificial mem brane.
The compounds were formulated using a solution containing 75% v/v water and 25% v/v DMSO. Different concentrations of formulated compounds were pipetted into the aphid diet, using a custom built pipetter, at two replications.
After application, 5 - 8 adult aphids were placed on the artificial membrane inside the microtiter plate wells. The aphids were then allowed to suck on the treated aphid diet and incubated at about 23 ± 1°C and about 50 ± 5 % relative humidity for 3 days. Aphid mortality and fecundity was then visually assessed.

Series [2] deals with Southern armyworm (Spodoptera eridania), 2nd instar larvae. The series is described as follows: Southern armyworm foliar spray test on Lima bean plants. Particulars: 2nd instar larvae on sprayed Lima bean plants, 4 days after treatment. The procedure: The active compounds were formulated by a Tecan liquid handler in 100% cyclohexanone as a 10,000-ppm solution supplied in tubes. The 10,000-ppm solution was serially diluted in 100% cyclohexanone to make interim solutions. These served as stock solutions for which final dilutions were made by the Tecan in 50% acetone:50% water (v/v) into 10 or 20ml glass vials. A non-ionic surfactant (Kinetic®) was included in the solution at a volume of 0.01% (v/v). The vials were then inserted into an automated electrostatic sprayer equipped with an atomizing nozzle for application to plants/insects. Lima bean plants (variety Sieva) were grown 2 plants to a pot and selected for treatment at the 1st true leaf stage. Test solutions were sprayed onto the foliage by an auto-mated electrostatic plant sprayer equipped with an atomizing spray nozzle. The plants were dried in the sprayer fume hood and then removed from the sprayer. Each pot was placed into perforated plastic bags with a zip closure. Ten to 11 armyworm larvae were placed into the bag and the bags zipped closed. Test plants were maintained in a growth room at about 25°C and about 20-40% relative humidity for 4 days, avoiding direct exposure to fluorescent light (14:10 light:dark photoperiod) to prevent trapping of heat inside the bags. Mortality and reduced feeding were assessed 4 days after treatment, compared to untreated control plants.

Series [3] deals with yellow fever mosquito (Aedes aegypti). Nature of the series: whole plant or invertebrate. The note with it: 48 h, larval mortality, 2 days, read-out: mortality in comparison with untreated controls. The procedure: For evaluating control of yellow fever mosquito (Aedes aegypti) the test unit consisted of 96-well-microtiter plates containing 200µl of tap water per well and 5-15 freshly hatched A. aegypti larvae.
The active compounds were formulated using a solution containing 75% (v/v) water and 25% (v/v) DMSO. Different concentrations of formulated compounds or mixtures were sprayed onto the insect diet at 2.5µl, using a custom-built micro atomizer, at two replications.
After application, microtiter plates were incubated at 28 ± 1°C, 80 ± 5 % RH for 2 days. Larval mortality was then visually assessed.

Series [4] relates to boll weevil (Anthonomus grandis). The series is described as follows: Boll weevil test, insect diet with eggs in 96-well microtiter plates. The note with it: 120 h, egg and larval mortality, 5 days, read-out: mortality in comparison with untreated controls. The procedure: For evaluating control of boll weevil (Anthonomus grandis), the test unit consisted of 96-well-microtiter plates containing an insect diet and 5-10 A. grandis eggs.
The compounds were formulated using a solution containing 75% v/v water and 25% v/v DMSO. Different concentrations of formulated compounds were sprayed onto the insect diet at 5 µl, using a custom-built micro atomizer, at two replications.
After application, microtiter plates were incubated at about 25 ± 1°C and about 75 ± 5 % relative humidity for 5 days. Egg and larval mortality was then visually assessed.

The subject of series [5] is tobacco budworm (Heliothis virescens). Nature of the series: Tobacco budworm test, insect diet with eggs in 96-well microtiter plates. The note with it: 120 h, egg and larval mortality, 5 days, read-out: mortality in comparison with untreated controls. The procedure:
For evaluating control of tobacco budworm (Heliothis virescens), the test unit consisted of 96-well-microtiter plates containing an insect diet and 15-25 H. virescens eggs.
The compounds were formulated using a solution containing 75% v/v water and 25% v/v DMSO. Different concentrations of formulated compounds were sprayed onto the insect diet at 10 µl using a custom-built micro atomizer, at two replications.
After application, microtiter plates were incubated at about 28 ± 1°C and about 80 ± 5 % relative humidity for 5 days. Egg and larval mortality was then visually assessed.

The results in this text go back to patent EP4140986A1, “PYRAZINE COMPOUNDS FOR THE CONTROL OF INVERTEBRATE PESTS” (BASF SE, priority 2021, dated 2023).

SMILES strings stand for the structures.

Take `CON=C(C)c1nccnc1C(C)NC(=O)c1cc(C(F)(F)F)cc(C(F)(F)F)c1` (stereo not drawn) [Compound I-1, N-[1-[3-[N-methoxy-C-methyl-carbonimidoyl]pyrazin-2-yl]ethyl]-3,5-bis(trifluoromethyl)benzamide]: the mortality at 2500 ppm in series [1], in series [3], in series [4] and in series [5] was ≥ 75% each time. The mortality (usually the share of the test organisms that died) at 300 ppm in series [2] (Spodoptera eridania, foliar, 96 h, read-out: mortality in comparison with untreated controls) was ≥ 75%.

Turning to `CON=C(N)c1nccnc1C(C)N(CC1CC1)C(=O)c1cc(C(F)(F)F)cc(C(F)(F)F)c1` (stereo not drawn) [Compound I-4], the “mortality in comparison with untreated controls” value in series [2] (300 ppm) is listed as “at least 75%”.
